Source: ChEMBL document CHEMBL5465560, “Selectivity Literature for EUbOPEN Chemogenomic Library” (2024)

What was measured:
[1] = molecular target: Calcium/calmodulin-dependent protein kinase type II subunit beta (Homo sapiens) (UniProt Q13554); experiment: Selectivity interaction (KinomeScan (DiscoverX)) EUB0000655a CAMK2B; details: at 10 µM
[2] = Selectivity interaction (Ex-vivo activation of CD20+ B cells in cynomolgus (anti-IgM/IL-4 stimulated pAKT)) EUB0000877a PIK3CD
[3] = molecular target: Death-associated protein kinase 3 (Homo sapiens) (UniProt O43293); experiment: Selectivity interaction (Kinase panel (Z-LYTE Assay)) EUB0001632a DAPK3; details: at 10 µM
[4] = molecular target: T1, STE20-related kinase adapter protein alpha (Homo sapiens) (UniProt Q7RTN6); experiment: Selectivity interaction (ActivX KiNativ screen (kinase selectivity in THP-1 cell lysates)) EUB0000639a STRADA; assay type: subcellular; details: lysate
T1 sequence (whole entry): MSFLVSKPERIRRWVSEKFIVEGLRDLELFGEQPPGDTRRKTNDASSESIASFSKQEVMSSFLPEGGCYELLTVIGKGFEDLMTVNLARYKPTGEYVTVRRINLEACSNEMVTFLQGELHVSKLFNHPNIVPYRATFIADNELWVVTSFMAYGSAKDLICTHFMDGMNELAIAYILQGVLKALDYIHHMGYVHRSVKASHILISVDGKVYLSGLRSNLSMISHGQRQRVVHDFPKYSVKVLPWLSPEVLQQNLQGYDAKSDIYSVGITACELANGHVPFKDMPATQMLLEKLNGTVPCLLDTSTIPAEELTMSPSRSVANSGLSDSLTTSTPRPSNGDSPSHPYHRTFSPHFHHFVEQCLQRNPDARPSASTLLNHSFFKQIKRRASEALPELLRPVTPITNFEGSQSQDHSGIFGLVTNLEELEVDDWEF

[5] = molecular target: T2, Ephrin type-B receptor 1 (Homo sapiens) (UniProt P54762); experiment: Selectivity interaction (SelectScreen profiling (Invitrogen)) EUB0000607a EPHB1; details: at 2 µM
T2 sequence (whole entry): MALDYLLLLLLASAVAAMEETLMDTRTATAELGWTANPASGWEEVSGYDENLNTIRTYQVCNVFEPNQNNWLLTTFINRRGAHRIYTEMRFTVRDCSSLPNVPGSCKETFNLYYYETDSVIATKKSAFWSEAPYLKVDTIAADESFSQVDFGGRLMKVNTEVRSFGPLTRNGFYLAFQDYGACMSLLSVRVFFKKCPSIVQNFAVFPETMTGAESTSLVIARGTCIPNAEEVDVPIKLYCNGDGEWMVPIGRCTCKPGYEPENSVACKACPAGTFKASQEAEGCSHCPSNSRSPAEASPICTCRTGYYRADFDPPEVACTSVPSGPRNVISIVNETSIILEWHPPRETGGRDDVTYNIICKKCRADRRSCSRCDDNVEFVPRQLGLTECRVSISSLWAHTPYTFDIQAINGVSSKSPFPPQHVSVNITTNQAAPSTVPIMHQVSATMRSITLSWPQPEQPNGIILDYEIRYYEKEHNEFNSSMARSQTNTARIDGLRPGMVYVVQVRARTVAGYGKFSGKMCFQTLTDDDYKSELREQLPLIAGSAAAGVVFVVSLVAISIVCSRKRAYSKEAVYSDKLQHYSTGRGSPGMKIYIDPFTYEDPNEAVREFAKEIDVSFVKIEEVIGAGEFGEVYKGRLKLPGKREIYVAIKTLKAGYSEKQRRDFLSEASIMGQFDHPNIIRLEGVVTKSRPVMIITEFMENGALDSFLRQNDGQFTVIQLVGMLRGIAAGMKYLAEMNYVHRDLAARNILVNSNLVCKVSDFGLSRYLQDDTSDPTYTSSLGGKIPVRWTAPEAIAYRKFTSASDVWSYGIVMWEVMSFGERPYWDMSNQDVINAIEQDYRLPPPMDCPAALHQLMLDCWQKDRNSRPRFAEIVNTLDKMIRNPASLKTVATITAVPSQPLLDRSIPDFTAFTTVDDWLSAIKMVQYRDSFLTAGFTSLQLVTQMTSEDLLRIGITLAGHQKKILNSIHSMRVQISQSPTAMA

Misshapen-like kinase 1 = Misshapen-like kinase 1 (Homo sapiens, UniProt Q8N4C8); experiment: Selectivity interaction (KinomeScan (DiscoverX)) EUB0001049a MINK1; details: at 1 µM
Sequence of Misshapen-like kinase 1 (Q8N4C8 whole entry, looked up): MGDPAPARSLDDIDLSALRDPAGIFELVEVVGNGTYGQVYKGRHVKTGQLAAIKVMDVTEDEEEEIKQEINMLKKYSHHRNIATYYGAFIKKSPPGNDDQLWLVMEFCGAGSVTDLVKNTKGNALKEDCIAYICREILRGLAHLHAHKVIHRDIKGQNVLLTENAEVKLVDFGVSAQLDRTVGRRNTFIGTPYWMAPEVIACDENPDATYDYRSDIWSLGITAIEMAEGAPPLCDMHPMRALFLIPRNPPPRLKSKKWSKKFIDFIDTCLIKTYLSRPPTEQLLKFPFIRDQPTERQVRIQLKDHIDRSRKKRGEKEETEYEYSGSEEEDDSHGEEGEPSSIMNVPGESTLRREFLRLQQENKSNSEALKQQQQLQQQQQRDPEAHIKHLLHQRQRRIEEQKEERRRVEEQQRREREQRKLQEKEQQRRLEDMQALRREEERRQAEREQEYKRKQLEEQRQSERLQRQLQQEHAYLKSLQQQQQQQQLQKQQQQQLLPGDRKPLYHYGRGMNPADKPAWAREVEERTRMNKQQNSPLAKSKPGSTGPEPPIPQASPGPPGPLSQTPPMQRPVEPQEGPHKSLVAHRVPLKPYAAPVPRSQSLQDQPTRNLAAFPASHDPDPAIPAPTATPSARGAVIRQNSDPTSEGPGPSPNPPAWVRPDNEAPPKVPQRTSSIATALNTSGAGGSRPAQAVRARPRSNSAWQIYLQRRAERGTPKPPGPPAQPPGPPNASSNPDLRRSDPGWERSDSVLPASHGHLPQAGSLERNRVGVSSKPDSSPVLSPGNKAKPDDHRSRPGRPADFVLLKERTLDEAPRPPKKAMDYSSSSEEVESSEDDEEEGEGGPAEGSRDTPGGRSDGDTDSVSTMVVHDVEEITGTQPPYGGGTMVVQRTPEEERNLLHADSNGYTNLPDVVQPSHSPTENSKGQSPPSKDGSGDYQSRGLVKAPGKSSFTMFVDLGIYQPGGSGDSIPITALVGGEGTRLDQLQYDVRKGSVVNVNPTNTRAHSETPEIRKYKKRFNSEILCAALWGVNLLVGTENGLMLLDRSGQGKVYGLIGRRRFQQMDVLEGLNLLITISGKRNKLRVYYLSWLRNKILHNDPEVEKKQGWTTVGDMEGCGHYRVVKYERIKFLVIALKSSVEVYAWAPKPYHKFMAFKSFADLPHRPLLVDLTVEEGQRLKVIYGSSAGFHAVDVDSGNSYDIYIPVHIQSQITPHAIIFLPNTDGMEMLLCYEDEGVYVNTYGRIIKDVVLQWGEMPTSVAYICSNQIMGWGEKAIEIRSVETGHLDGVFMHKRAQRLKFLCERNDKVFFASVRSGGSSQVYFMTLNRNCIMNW

[6] = molecular target: Serine/threonine-protein kinase PAK 6 (Homo sapiens) (UniProt Q9NQU5); experiment: Selectivity interaction (KinomeScan (DiscoverX)) EUB0000695a PAK6; details: at 100 nM
Sequence of Serine/threonine-protein kinase PAK 6 (Homo sapiens) (Q9NQU5 whole entry, looked up): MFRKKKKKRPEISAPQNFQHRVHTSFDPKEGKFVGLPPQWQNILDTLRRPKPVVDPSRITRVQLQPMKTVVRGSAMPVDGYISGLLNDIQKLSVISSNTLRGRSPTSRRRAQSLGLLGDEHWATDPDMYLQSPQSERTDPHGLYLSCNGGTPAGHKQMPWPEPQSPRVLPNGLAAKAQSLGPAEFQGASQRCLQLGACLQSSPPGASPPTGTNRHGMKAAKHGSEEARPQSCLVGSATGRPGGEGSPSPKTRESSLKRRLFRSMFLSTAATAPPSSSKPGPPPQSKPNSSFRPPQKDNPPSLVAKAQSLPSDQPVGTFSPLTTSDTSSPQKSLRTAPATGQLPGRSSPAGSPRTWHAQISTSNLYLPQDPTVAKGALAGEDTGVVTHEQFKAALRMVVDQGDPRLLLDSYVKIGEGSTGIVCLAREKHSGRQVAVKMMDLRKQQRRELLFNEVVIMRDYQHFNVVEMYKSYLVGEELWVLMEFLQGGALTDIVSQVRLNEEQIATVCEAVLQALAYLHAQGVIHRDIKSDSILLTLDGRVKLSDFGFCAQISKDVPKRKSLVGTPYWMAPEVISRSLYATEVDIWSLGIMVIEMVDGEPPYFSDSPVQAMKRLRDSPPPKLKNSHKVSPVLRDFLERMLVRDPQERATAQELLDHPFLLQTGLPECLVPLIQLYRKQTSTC

[7] = molecular target: Tyrosine-protein kinase SYK (Homo sapiens, UniProt P43405); experiment: Selectivity interaction (KinomeScan (DiscoverX)) EUB0000618a SYK; details: at 10 µM
[8] = test system: Mast/stem cell growth factor receptor Kit (Homo sapiens), P10721 [A829P]; experiment: (§1) Selectivity interaction (Ambit KINOMEscan and KiNATiv profiling in Jurkat cells) EUB0000090b KIT; assay type: cell-based; details: at 1 µM
[9] = test system: Mast/stem cell growth factor receptor Kit (Homo sapiens), P10721 [D816H]; experiment: as §1; assay type: cell-based; details: at 1 µM
Sequence of Mast/stem cell growth factor receptor Kit (Homo sapiens), P10721 [D816H] (P10721 whole entry D816H): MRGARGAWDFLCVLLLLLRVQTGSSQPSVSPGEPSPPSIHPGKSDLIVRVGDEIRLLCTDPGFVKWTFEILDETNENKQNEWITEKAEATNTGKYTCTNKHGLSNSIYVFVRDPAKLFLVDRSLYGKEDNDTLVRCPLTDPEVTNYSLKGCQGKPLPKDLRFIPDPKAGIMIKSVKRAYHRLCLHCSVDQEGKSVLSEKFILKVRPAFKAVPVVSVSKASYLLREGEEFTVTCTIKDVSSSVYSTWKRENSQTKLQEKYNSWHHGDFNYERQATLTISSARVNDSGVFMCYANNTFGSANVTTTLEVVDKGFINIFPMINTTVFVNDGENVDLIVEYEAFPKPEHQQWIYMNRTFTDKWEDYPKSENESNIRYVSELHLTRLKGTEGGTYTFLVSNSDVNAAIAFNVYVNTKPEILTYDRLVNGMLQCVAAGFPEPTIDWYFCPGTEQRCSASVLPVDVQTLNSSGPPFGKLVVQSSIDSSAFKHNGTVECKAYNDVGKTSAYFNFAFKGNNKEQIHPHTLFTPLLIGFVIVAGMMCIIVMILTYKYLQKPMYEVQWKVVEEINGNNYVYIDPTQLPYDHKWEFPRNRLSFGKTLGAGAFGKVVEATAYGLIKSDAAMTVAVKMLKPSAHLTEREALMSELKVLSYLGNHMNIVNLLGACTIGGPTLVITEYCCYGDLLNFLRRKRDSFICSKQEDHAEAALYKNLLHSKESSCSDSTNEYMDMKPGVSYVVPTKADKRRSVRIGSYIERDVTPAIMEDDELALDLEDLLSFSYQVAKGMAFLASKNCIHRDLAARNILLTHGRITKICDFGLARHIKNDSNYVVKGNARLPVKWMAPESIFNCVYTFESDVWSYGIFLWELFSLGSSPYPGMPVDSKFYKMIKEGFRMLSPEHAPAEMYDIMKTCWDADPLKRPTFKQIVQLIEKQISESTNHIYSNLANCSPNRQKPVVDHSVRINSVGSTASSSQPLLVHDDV

[10] = test system: Mast/stem cell growth factor receptor Kit (Homo sapiens), P10721 [D816V]; experiment: as §1; assay type: cell-based; details: at 1 µM
[11] = test system: Mast/stem cell growth factor receptor Kit (Homo sapiens), P10721 [L576P]; experiment: as §1; assay type: cell-based; details: at 1 µM
Sequence of Mast/stem cell growth factor receptor Kit (Homo sapiens), P10721 [L576P] (P10721 whole entry L576P): as the sequence (P10721 whole entry D816H) above, with L576P, H816D counted along it

[12] = test system: Mast/stem cell growth factor receptor Kit (Homo sapiens), P10721 [V559D,T670I]; experiment: as §1; assay type: cell-based; details: at 1 µM
[13] = test system: Mast/stem cell growth factor receptor Kit (Homo sapiens), P10721 [V559D,V654A]; experiment: as §1; assay type: cell-based; details: at 1 µM
[14] = test system: Mast/stem cell growth factor receptor Kit (Homo sapiens), P10721 [V559D]; experiment: as §1; assay type: cell-based; details: at 1 µM
Sequence of Mast/stem cell growth factor receptor Kit (Homo sapiens), P10721 [V559D] (P10721 whole entry V559D): as the sequence (P10721 whole entry D816H) above, with V559D, H816D counted along it

[15] = molecular target: Mast/stem cell growth factor receptor Kit (Homo sapiens, UniProt P10721); experiment: as §1; assay type: cell-based; details: at 1 µM

CN(C)CCOc1ccc(-c2nc(-c3ccncc3)c(-c3ccc4c(c3)CC/C4=N\O)[nH]2)cc1
% of control [1]: 98%

CCC(=O)N1CC[C@H](Nc2ncnc3c2CN(c2cnc(OC)c(C(F)(F)F)c2)CC3)C1 [LENIOLISIB]
EC50 [2]: 140 nM

Cn1cc(-n2cnc3c(NCc4nc5cc(Cl)c(Cl)cc5[nH]4)nc(N4CCOCC4)nc32)cn1
% of control [3]: -3.73%

CC[C@@H]1[C@H](F)C(=O)N[C@@H]1COc1nccc2cc(C(N)=O)c(OC)cc12 [ZIMLOVISERTIB]
% of inhibition ([4]; at 0.01 µM): -13.1%
% of inhibition ([4]; at 0.04 µM): 4.6%
% of inhibition ([4]; at 0.2 µM): -11.6%
% of inhibition ([4]; at 1 µM): 5.4%
% of inhibition ([4]; at 5 µM): 3.6%

CNC(=O)Nc1ccc(-c2nc(N3CC4CCC(C3)O4)c3cnn(C4CCC5(CC4)OCCO5)c3n2)cc1
% of inhibition [5]: 2%

COc1cc(Nc2nc(C)cc(-c3cnn4nc(OC)ccc34)n2)cc(C(F)(F)F)c1
% of control (Misshapen-like kinase 1): 79%

Cc1cc(F)c(C(=O)Nc2cccc(-c3nncn3C(C)C)n2)cc1-n1cnc(C2CC2)c1
% of control [6]: 90%

O[C@H]1CC[C@H](Nc2ncc3nc(Nc4c(F)cc(F)cc4F)n([C@H]4CCOC4)c3n2)CC1
% of control [7]: 100%

CN(C)C/C=C/C(=O)Nc1ccc(C(=O)N2CCCC(Nc3ncc(Cl)c(-c4c[nH]c5ccccc45)n3)C2)cc1 (stereo not given)
% of control [8]: 75%
% of control [9]: 76%
% of control [10]: 92%
% of control [11]: 82%
% of control [12]: 95%
% of control [13]: 74%
% of control [14]: 82%
% of control [15]: 93%
